Source: ChEMBL document CHEMBL2203054, “Synthesis and biological evaluation of a selective N- and p/q-type calcium channel agonist” (ACS Med Chem Lett, 2012)

What was measured:
[1] = target: T1, Voltage-dependent N-type calcium channel subunit alpha-1B (Homo sapiens, UniProt Q00975); test: Agonist activity at N-type Cav2.2 channel expressed in tsA201 cell assessed as calcium current by whole-cell patch clamp method; assay type: functional, cell-based
Target sequence in this assay (Q00975 whole entry): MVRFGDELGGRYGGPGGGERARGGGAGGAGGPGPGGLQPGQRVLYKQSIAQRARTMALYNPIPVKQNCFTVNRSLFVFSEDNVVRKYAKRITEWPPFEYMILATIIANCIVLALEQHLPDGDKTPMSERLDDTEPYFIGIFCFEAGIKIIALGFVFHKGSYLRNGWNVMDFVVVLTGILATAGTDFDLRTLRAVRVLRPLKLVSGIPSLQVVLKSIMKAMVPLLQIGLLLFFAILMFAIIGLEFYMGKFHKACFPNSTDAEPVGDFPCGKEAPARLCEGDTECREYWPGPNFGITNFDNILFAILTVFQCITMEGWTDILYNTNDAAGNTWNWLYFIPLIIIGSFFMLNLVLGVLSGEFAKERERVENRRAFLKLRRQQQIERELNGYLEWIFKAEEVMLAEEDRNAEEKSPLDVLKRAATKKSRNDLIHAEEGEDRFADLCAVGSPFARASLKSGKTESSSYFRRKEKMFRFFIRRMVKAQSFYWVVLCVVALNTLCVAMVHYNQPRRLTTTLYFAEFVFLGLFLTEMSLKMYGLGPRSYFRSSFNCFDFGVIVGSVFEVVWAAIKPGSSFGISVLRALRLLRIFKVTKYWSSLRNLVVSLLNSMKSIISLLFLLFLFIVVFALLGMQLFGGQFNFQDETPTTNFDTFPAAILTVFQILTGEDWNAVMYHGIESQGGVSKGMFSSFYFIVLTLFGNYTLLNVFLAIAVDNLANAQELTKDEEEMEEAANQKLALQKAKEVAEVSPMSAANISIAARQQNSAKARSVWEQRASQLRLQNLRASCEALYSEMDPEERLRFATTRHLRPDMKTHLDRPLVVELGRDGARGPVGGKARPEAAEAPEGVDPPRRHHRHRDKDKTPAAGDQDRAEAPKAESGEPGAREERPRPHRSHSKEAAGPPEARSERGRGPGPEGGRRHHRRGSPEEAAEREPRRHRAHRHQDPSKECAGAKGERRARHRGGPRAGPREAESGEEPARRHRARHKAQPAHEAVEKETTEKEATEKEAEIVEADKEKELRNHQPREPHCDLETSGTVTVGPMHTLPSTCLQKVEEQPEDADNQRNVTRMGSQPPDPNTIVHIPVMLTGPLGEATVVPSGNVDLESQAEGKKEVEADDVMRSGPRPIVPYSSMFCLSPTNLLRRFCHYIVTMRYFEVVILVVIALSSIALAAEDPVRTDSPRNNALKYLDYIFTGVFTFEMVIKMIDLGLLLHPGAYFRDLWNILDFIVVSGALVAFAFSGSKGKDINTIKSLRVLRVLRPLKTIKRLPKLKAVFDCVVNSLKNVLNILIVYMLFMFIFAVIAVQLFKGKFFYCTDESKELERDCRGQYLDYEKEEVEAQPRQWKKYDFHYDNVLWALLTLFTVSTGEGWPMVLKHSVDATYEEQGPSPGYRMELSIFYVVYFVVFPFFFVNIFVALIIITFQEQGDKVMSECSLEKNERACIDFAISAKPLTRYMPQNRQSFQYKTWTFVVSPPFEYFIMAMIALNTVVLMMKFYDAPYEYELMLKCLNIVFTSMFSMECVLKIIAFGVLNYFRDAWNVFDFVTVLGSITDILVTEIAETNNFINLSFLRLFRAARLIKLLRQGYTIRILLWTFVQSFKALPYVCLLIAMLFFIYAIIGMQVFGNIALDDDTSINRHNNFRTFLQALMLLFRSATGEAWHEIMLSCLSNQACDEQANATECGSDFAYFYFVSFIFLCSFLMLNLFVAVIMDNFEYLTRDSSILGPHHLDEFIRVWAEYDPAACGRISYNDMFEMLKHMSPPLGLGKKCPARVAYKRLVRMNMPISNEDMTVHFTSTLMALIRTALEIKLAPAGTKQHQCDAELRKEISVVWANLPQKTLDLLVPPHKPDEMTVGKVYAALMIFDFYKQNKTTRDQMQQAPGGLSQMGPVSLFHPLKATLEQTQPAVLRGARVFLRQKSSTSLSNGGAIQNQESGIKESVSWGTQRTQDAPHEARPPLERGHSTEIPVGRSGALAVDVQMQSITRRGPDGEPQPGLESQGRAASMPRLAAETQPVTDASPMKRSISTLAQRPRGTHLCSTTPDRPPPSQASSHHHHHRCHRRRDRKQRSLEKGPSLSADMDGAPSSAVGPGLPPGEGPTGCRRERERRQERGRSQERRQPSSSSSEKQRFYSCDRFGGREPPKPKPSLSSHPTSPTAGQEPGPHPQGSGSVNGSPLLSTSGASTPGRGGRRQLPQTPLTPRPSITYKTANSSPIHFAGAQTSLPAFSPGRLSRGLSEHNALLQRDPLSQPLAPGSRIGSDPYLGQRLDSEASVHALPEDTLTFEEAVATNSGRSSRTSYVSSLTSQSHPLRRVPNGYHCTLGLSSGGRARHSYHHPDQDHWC

[2] = target: Cyclin-dependent kinase 2/cyclin A (Homo sapiens, UniProt P24941); test: Inhibition of human Cdk2/cyclin A activity; assay type: protein-complex assay
[3] = target: T1, Voltage-dependent N-type calcium channel subunit alpha-1B; test: Ratio of (R)-roscovitine EC50 to compound EC50 for N-type Cav2.2 channel
Target sequence in this assay (Q00975 whole entry, looked up): as the sequence (Q00975 whole entry) above

[4] = target: Mitogen-activated protein kinase 1 (Homo sapiens, UniProt P28482); test: Inhibition of human MAPK1
[5] = target: Myosin light chain kinase, smooth muscle (Homo sapiens, UniProt Q15746); test: Inhibition of human MLCK
[6] = target: Cyclin-dependent kinase 5/CDK5 activator 1 (Homo sapiens, UniProt Q00535); test: Inhibition of human Cdk5/p35 activity; assay type: protein-complex assay
[7] = target: Cyclin-dependent kinase 1/cyclin B1 (Homo sapiens, UniProt P06493); test: Inhibition of human Cdk1/cyclin B activity; assay type: protein-complex assay
[8] = target: Voltage-dependent L-type calcium channel subunit alpha-1D (Homo sapiens, UniProt Q01668); test: Agonist activity at L-type Cav1.3 expressed in tsA201 cell assessed as calcium current by whole-cell patch clamp method; assay type: functional, cell-based
[9] = target: Voltage-dependent P/Q-type calcium channel subunit alpha-1A (Homo sapiens, UniProt O00555); test: Agonist activity at P/Q-type Cav2.1 expressed in tsA201 cell assessed as calcium current by whole-cell patch clamp method; assay type: functional, cell-based

Sequence of Voltage-dependent L-type calcium channel subunit alpha-1D (Q01668 whole entry): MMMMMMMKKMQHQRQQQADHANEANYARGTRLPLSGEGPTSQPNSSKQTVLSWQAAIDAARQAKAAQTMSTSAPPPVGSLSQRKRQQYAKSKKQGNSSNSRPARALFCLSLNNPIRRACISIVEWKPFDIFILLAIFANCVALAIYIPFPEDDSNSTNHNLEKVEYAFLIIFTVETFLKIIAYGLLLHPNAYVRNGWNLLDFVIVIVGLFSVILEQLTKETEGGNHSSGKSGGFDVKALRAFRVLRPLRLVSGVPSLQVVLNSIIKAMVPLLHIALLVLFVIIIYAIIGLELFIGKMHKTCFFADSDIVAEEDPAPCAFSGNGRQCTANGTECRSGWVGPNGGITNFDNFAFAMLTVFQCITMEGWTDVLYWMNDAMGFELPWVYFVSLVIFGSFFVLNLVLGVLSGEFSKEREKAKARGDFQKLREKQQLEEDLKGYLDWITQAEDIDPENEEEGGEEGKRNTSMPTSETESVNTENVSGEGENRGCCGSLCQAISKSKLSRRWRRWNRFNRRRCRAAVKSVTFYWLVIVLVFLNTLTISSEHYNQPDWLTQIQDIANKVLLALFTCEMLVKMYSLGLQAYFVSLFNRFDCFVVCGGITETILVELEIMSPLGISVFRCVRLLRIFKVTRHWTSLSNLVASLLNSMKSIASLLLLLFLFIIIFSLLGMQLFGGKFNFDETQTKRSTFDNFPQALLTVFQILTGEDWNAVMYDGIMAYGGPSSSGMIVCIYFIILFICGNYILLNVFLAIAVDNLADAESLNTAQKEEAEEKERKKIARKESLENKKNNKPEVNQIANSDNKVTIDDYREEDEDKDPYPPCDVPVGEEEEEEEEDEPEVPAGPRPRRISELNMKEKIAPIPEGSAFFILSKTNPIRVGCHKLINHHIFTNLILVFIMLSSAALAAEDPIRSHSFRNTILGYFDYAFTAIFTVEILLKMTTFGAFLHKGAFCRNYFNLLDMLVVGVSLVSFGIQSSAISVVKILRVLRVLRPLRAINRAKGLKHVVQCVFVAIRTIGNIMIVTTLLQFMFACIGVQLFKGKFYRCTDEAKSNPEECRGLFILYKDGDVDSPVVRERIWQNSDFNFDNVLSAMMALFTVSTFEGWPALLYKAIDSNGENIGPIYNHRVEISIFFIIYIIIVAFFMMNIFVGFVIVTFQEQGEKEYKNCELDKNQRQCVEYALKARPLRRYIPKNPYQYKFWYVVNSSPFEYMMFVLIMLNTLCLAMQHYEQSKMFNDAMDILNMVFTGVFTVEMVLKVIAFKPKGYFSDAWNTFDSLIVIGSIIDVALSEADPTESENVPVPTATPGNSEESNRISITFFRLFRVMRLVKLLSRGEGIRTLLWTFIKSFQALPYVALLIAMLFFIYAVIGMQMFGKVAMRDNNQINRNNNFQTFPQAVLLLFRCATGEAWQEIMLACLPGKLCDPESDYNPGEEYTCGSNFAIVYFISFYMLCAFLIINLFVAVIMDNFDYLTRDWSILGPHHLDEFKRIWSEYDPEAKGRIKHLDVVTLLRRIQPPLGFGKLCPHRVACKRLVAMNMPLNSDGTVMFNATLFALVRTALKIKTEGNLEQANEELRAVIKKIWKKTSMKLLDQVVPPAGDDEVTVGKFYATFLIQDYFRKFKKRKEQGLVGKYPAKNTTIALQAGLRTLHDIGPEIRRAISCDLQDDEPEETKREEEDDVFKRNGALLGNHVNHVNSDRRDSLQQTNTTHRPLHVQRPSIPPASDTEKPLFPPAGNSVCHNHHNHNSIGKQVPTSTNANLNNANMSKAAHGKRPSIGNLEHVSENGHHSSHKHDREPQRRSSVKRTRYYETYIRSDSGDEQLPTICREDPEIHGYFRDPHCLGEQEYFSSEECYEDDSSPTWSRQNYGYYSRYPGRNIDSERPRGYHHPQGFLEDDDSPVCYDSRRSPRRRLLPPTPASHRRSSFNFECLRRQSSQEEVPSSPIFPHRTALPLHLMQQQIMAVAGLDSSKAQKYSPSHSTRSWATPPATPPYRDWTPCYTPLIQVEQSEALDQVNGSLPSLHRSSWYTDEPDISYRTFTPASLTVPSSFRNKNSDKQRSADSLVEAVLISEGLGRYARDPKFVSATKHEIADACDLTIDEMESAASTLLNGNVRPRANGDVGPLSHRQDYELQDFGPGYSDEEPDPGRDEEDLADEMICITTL
Sequence of Mitogen-activated protein kinase 1 (P28482 whole entry): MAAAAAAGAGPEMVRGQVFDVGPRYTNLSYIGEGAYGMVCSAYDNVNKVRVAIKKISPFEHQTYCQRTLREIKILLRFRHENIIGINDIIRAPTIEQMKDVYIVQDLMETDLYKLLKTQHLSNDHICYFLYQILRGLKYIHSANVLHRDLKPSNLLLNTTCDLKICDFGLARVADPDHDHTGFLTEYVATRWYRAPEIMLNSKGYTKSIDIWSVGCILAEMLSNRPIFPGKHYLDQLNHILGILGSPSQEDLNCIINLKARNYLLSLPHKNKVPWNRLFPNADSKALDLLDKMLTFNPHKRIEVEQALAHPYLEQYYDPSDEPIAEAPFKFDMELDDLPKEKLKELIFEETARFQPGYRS

Row | Structure (SMILES) | EC50 [1] [µM] | other results
1 | CCCn1cnc2c(NC(c3ccccc3)c3ccccc3)nc(N[C@H](CC)CO)nc21 | > 100 | –
2 | CC[C@H](CO)Nc1nc(NCc2ccc(C)s2)c2ncn(C)c2n1 | 30 | EC50 [2]: 3.04 µM
3 | CC(C)n1cnc2c(NCc3ccccc3)nc(NCCCO)nc21 [BOHEMINE] | > 1000 | –
4 | CC[C@H](CO)Nc1nc(NCc2ccc(-c3ccccc3)cc2)c2ncn(C(C)C)c2n1 | > 100 | –
5 | CN(C)CCNc1nc(NCc2ccccc2)c2ncn(C)c2n1 | > 1000 | –
6 | CCCn1cnc2c(NCc3ccccc3)nc(N[C@H](CC)CO)nc21 | 14.2 | –
7 | Cn1cnc2nc(NCCO)nc(NCc3ccccc3)c21 | > 1000 | –
8 | CC[C@H](CO)Nc1nc(NCc2cccnc2)c2ncn(C)c2n1 | > 100 | –
9 | CC[C@H](CO)Nc1nc(NCc2ccccc2)c2ncn(C)c2n1 | > 70 | –
10 | CCCn1cnc2c(NCCc3ccccc3)nc(N[C@H](CC)CO)nc21 | > 100 | –
11 | CC[C@H](CO)Nc1nc(NCc2ccc(C)s2)c2ncn(C(C)C)c2n1 | 11.3 | –
12 | CC[C@H](CO)Nc1nc(N(Cc2ccccc2)Cc2ccccc2)c2ncn(C(C)C)c2n1 | > 1000 | –
13 | CCCn1cnc2c(Nc3ccccc3)nc(N[C@H](CC)CO)nc21 | > 100 | –
14 | CC[C@H](CO)Nc1nc(NC(c2ccccc2)c2ccccc2)c2ncn(C(C)C)c2n1 | > 100 | –
15 | CC[C@H](CO)Nc1nc(NCc2cccnc2)c2ncn(C(C)C)c2n1 | > 100 | –
16 | CCCn1cnc2c(NCC3CC3)nc(N[C@H](CC)CO)nc21 | > 100 | EC50 [2]: 3.63 µM
17 | CC[C@H](CO)Nc1nc(NCC2CC2)c2ncn(C(C)C)c2n1 | > 100 | –
18 | CC[C@H](CO)Nc1nc(NCc2ccccc2O)c2ncn(C(C)C)c2n1 [OLOMOUCINE II] | 80 | –

Row | Structure (SMILES) | EC50 [1] [µM] | other results
19 | CC[C@H](CO)Nc1nc(NCc2ccccc2)n2ncc(C(C)C)c2n1 | < 100 | –
20 | O=Nc1c(-c2c(O)[nH]c3ccccc23)[nH]c2ccccc12 [INDIRUBIN-3-MONOXIME] | > 1000 | –
21 | CCCn1cnc2c(NCc3ccc(C(F)(F)F)cc3)nc(N[C@H](CC)CO)nc21 | > 100 | –
22 | CC[C@H](CO)Nc1nc(NCC2CC2)c2ncn(C)c2n1 | > 100 | –
23 | CC(C)n1cnc2c(NCc3ccccc3)nc(NCCO)nc21 | > 1000 | –
24 | CC[C@H](CO)Nc1nc(NCCc2ccccc2)c2ncn(C)c2n1 | > 100 | –
25 | CC[C@H](CO)Nc1nc(NC(c2ccccc2)c2ccccc2)c2ncn(C)c2n1 | > 100 | –
26 | O=c1[nH]c2ccccc2c2[nH]c3ccc(Br)cc3c12 | > 1000 | –
27 | Cn1cnc2c(NCc3ccccc3)nc(NCCO)nc21 [OLOMOUCINE] | > 1000 | –
28 | CCCn1cnc2c(NCc3ccc(C)s3)nc(N[C@H](CC)CO)nc21 | 7.21 | Ratio EC50 [3]: 4; EC50 [4]: > 20 µM; EC50 [5]: > 20 µM; EC50 [6]: 3.03 µM; EC50 [7]: 20.6 µM; EC50 [8]: > 100 µM; EC50 [9]: 8.8 µM; EC50 [2]: 3.29 µM
29 | CC[C@H](CO)Nc1nc(NCc2ccc(-c3ccccc3)cc2)c2ncn(C)c2n1 | > 100 | –
30 | CC[C@H](CO)Nc1nc(NCCc2ccccc2)c2ncn(C(C)C)c2n1 | > 100 | –
31 | CC[C@H](CO)Nc1nc(Nc2ccccc2)c2ncn(C)c2n1 | > 100 | –
32 | CCCn1cnc2c(NCc3cccnc3)nc(N[C@H](CC)CO)nc21 | > 100 | –
33 | CC[C@H](CO)Nc1nc(N(C)Cc2ccccc2)c2ncn(C(C)C)c2n1 | > 1000 | –
34 | CC[C@H](CO)Nc1nc(NCc2cccc(C(F)(F)F)c2)c2ncn(C(C)C)c2n1 | > 100 | –
35 | CCCn1cnc2c(NCc3ccc(-c4ccccc4)cc3)nc(N[C@H](CC)CO)nc21 | > 100 | –
